Assay results from ChEMBL document CHEMBL1201862, “PubChem BioAssay data set” (2004).
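96-well plates; 48 h exposure; 5 concentrations. Endpoints by linear interpolation between flanking doses. Not reached: highest tested concentration assigned. Abbreviation: GI50, concentration required for 50% inhibition of growth.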 Active and inactive are the calls of the source. Cut-off read from the data, not from the text of the source: active = GI50 up to about 1.1 µM and inactive = higher.

Assays:
Assay in all cases: growth of human tumour cells (NCI), 48 h
M19-MEL = system: M19-MEL
SF-268 = system: SF-268
DMS-114 = system: DMS-114
CCRF-CEM = system: CCRF-CEM
NCI-H522 = system: NCI-H522
SW-620 = system: SW-620
HCT-15 = system: HCT-15
ACHN = system: ACHN
UACC-257 = system: UACC-257
SN12C = system: SN12C
DMS-273 = system: DMS-273
KM12 = system: KM12
HT-29 = system: HT-29
MOLT-4 = system: MOLT-4
HOP-92 = system: HOP-92
K562 = system: K562
RXF 631 = system: RXF 631
UACC-62 = system: UACC-62
HOP-62 = system: HOP-62
M14 = system: M14
EKVX = system: EKVX
Malme-3M = system: Malme-3M
NCI-H23 = system: NCI-H23
SK-OV-3 = system: SK-OV-3
COLO 205 = system: COLO 205
TK-10 = system: TK-10
HOP-18 = system: HOP-18
IGROV-1 = system: IGROV-1
SNB-75 = system: SNB-75
NCI-H460 = system: NCI-H460
HCT-116 = system: HCT-116
DLD-1 = system: DLD-1
UO-31 = system: UO-31
SNB-19 = system: SNB-19
OVCAR-8 = system: OVCAR-8
OVCAR-4 = system: OVCAR-4
SR = system: SR
786-0 = system: 786-0
SK-MEL-28 = system: SK-MEL-28
LXFL 529 = system: LXFL 529
HL-60 = system: HL-60
SNB-78 = system: SNB-78
U-251 = system: U-251
SK-MEL-2 = system: SK-MEL-2
KM-20L2 = system: KM-20L2
OVCAR-3 = system: OVCAR-3
OVCAR-5 = system: OVCAR-5
A549 = system: A549
CAKI-1 = system: CAKI-1
SF-295 = system: SF-295
HCC 2998 = system: HCC 2998
NCI-H226 = system: NCI-H226
SK-MEL-5 = system: SK-MEL-5
SF-539 = system: SF-539
RPMI-8226 = system: RPMI-8226
A498 = system: A498
LOX IMVI = system: LOX IMVI
XF498 = system: XF498
RXF 393 = system: RXF 393

Measured: GI50

C=CCc1cc(OC)c2c(c1)C(O)CC(c1ccccc1)O2 (stereo not drawn)
inactive: M19-MEL > 100 µM | SF-268 > 100 µM | DMS-114 > 100 µM | CCRF-CEM > 100 µM | NCI-H522 > 100 µM | SW-620 > 100 µM | ACHN > 100 µM | UACC-257 > 100 µM | SN12C > 100 µM | DMS-273 > 100 µM | KM12 > 100 µM | HT-29 60.1 µM | MOLT-4 27.9 µM | HOP-92 > 100 µM | K562 23.6 µM | RXF 631 > 100 µM | UACC-62 > 100 µM | HOP-62 > 100 µM | M14 > 100 µM | EKVX > 100 µM | Malme-3M > 100 µM | NCI-H23 > 100 µM | SK-OV-3 > 100 µM | COLO 205 > 100 µM | TK-10 > 100 µM | HOP-18 > 100 µM | IGROV-1 > 100 µM | SNB-75 > 100 µM | NCI-H460 > 100 µM | HCT-116 > 100 µM | DLD-1 > 100 µM | UO-31 > 100 µM | SNB-19 > 100 µM | OVCAR-8 > 100 µM | OVCAR-4 > 100 µM | SR > 100 µM | 786-0 > 100 µM | SK-MEL-28 > 100 µM | LXFL 529 > 100 µM | HL-60 35.6 µM | SNB-78 > 100 µM | U-251 > 100 µM | SK-MEL-2 > 100 µM | KM-20L2 78.3 µM | OVCAR-3 > 100 µM | OVCAR-5 78.5 µM | A549 > 100 µM | CAKI-1 62.7 µM | SF-295 > 100 µM | HCC 2998 > 100 µM | NCI-H226 > 100 µM | SK-MEL-5 > 100 µM | SF-539 > 100 µM
96.6 µM: HCT-15

CCCCCCCCOCC(O)COC(=O)CCCCCCC (stereo not drawn)
inactive: M19-MEL 70.8 µM | SF-268 95.5 µM | DMS-114 > 100 µM | RPMI-8226 27.1 µM | CCRF-CEM 12.1 µM | SW-620 > 100 µM | ACHN > 100 µM | UACC-257 51.3 µM | SN12C > 100 µM | DMS-273 44.6 µM | HT-29 > 100 µM | MOLT-4 32.7 µM | HOP-92 25.2 µM | K562 31.2 µM | RXF 631 > 100 µM | UACC-62 50.8 µM | HOP-62 > 100 µM | M14 > 100 µM | Malme-3M > 100 µM | NCI-H23 53.6 µM | SK-OV-3 > 100 µM | COLO 205 79.3 µM | TK-10 > 100 µM | HOP-18 > 100 µM | IGROV-1 > 100 µM | NCI-H460 > 100 µM | HCT-116 > 100 µM | DLD-1 > 100 µM | UO-31 > 100 µM | SNB-19 > 100 µM | OVCAR-8 > 100 µM | OVCAR-4 34.4 µM | A498 > 100 µM | SR 17.4 µM | 786-0 > 100 µM | SK-MEL-28 > 100 µM | LOX IMVI > 100 µM | LXFL 529 > 100 µM | HL-60 32.4 µM | U-251 > 100 µM | KM-20L2 > 100 µM | OVCAR-3 18.3 µM | OVCAR-5 > 100 µM | A549 > 100 µM | CAKI-1 > 100 µM | SF-295 > 100 µM | HCC 2998 30.7 µM | NCI-H226 > 100 µM | SK-MEL-5 > 100 µM
> 100 µM: HCT-15

O=c1c2cc([N+](=O)[O-])ccc2sc2ccsc12
> 100 µM: HCT-15
inactive: M19-MEL > 100 µM | SF-268 > 100 µM | DMS-114 > 100 µM | RPMI-8226 > 100 µM | CCRF-CEM > 100 µM | NCI-H522 > 100 µM | SW-620 > 100 µM | ACHN > 100 µM | UACC-257 > 100 µM | SN12C > 100 µM | KM12 > 100 µM | HT-29 > 100 µM | MOLT-4 > 100 µM | HOP-92 > 100 µM | K562 > 100 µM | RXF 631 > 100 µM | UACC-62 > 100 µM | HOP-62 > 100 µM | M14 > 100 µM | EKVX > 100 µM | Malme-3M > 100 µM | NCI-H23 > 100 µM | SK-OV-3 > 100 µM | XF498 > 100 µM | COLO 205 > 100 µM | HOP-18 > 100 µM | IGROV-1 > 100 µM | SNB-75 > 100 µM | NCI-H460 > 100 µM | HCT-116 > 100 µM | DLD-1 > 100 µM | UO-31 > 100 µM | SNB-19 > 100 µM | OVCAR-8 > 100 µM | OVCAR-4 > 100 µM | A498 > 100 µM | 786-0 > 100 µM | SK-MEL-28 > 100 µM | LOX IMVI > 100 µM | LXFL 529 69.3 µM | HL-60 > 100 µM | SNB-78 > 100 µM | U-251 > 100 µM | SK-MEL-2 > 100 µM | KM-20L2 > 100 µM | OVCAR-3 > 100 µM | OVCAR-5 > 100 µM | A549 > 100 µM | SF-295 > 100 µM | HCC 2998 > 100 µM | NCI-H226 > 100 µM | SK-MEL-5 > 100 µM | RXF 393 > 100 µM | SF-539 > 100 µM

CCO/C(CCn1[nH]c(=O)c(Cl)c(Cl)c1=O)=N\NC(=O)C(=O)NN
inactive: M19-MEL > 100 µM | SF-268 > 100 µM | DMS-114 > 100 µM | RPMI-8226 > 100 µM | CCRF-CEM > 100 µM | NCI-H522 > 100 µM | SW-620 > 100 µM | ACHN > 100 µM | UACC-257 > 100 µM | SN12C > 100 µM | DMS-273 > 100 µM | KM12 > 100 µM | HT-29 > 100 µM | MOLT-4 > 100 µM | K562 > 100 µM | RXF 631 > 100 µM | UACC-62 > 100 µM | HOP-62 > 100 µM | M14 > 100 µM | EKVX > 100 µM | Malme-3M > 100 µM | NCI-H23 > 100 µM | SK-OV-3 > 100 µM | XF498 > 100 µM | COLO 205 > 100 µM | TK-10 > 100 µM | HOP-18 > 100 µM | IGROV-1 > 100 µM | SNB-75 > 100 µM | NCI-H460 > 100 µM | DLD-1 > 100 µM | UO-31 > 100 µM | SNB-19 > 100 µM | OVCAR-8 > 100 µM | OVCAR-4 > 100 µM | A498 82.8 µM | 786-0 > 100 µM | SK-MEL-28 > 100 µM | LOX IMVI > 100 µM | LXFL 529 > 100 µM | HL-60 > 100 µM | U-251 > 100 µM | SK-MEL-2 > 100 µM | KM-20L2 > 100 µM | OVCAR-3 > 100 µM | OVCAR-5 > 100 µM | A549 > 100 µM | CAKI-1 > 100 µM | SF-295 > 100 µM | HCC 2998 > 100 µM | NCI-H226 > 100 µM | SK-MEL-5 > 100 µM | RXF 393 > 100 µM | SF-539 > 100 µM
> 100 µM: HCT-15

Cc1cn(Cc2ccccc2CCO)c(=S)[nH]c1=O
inactive: M19-MEL > 100 µM | SF-268 > 100 µM | DMS-114 > 100 µM | RPMI-8226 > 100 µM | CCRF-CEM > 100 µM | NCI-H522 > 100 µM | SW-620 > 100 µM | ACHN > 100 µM | UACC-257 > 100 µM | SN12C > 100 µM | DMS-273 > 100 µM | KM12 > 100 µM | HT-29 > 100 µM | MOLT-4 > 100 µM | HOP-92 > 100 µM | K562 > 100 µM | RXF 631 > 100 µM | UACC-62 > 100 µM | HOP-62 > 100 µM | M14 > 100 µM | EKVX > 100 µM | Malme-3M > 100 µM | NCI-H23 > 100 µM | SK-OV-3 > 100 µM | XF498 > 100 µM | COLO 205 > 100 µM | TK-10 > 100 µM | HOP-18 > 100 µM | IGROV-1 > 100 µM | SNB-75 > 100 µM | NCI-H460 > 100 µM | UO-31 > 100 µM | SNB-19 > 100 µM | OVCAR-8 > 100 µM | OVCAR-4 > 100 µM | A498 > 100 µM | 786-0 > 100 µM | SK-MEL-28 > 100 µM | LOX IMVI > 100 µM | LXFL 529 > 100 µM | HL-60 > 100 µM | U-251 > 100 µM | SK-MEL-2 > 100 µM | KM-20L2 > 100 µM | OVCAR-3 > 100 µM | OVCAR-5 > 100 µM | A549 > 100 µM | CAKI-1 > 100 µM | SF-295 > 100 µM | NCI-H226 34.8 µM | SK-MEL-5 > 100 µM | RXF 393 > 100 µM | SF-539 > 100 µM
> 100 µM: HCT-15
